Test [1] deals with T1, GST-MAD2L2 (Homo sapiens, UniProt Q9UI95).
T1 construct: GST fusion, expressed in E. coli BL21 Star, standard GST purification, amine-immobilised on graphene chip
In words: field-effect biosensing (FEB, Agile R100), immobilised protein. To be noted: PBS; compound 1-50 μM; Hill fit or kon/koff. In kind it is binding.

Test [2] addresses T2, MAD2L2-Rev1 complex (myc-MAD2L2 and YFP-Rev1) (Homo sapiens, UniProt Q9UI95).
T2 construct: stoichiometry from the docking model; with DNA repair protein REV1
As to the kind of experiment: co-immunoprecipitation (GFP-Trap), immunoblot. In kind it is cell-based. The following applies: HEK293 cells, 50 μM compound, 24 h.

Test [3] concerns the target T1, GST-MAD2L2. As to the kind of experiment: field-effect biosensing (FEB, Agile R100), immobilised protein. To be noted: PBS; compound 1-50 μM; Hill fit or kon/koff; unreliable. In kind it is binding.

T1 sequence (Q9UI95 whole entry, the tested form may be a part): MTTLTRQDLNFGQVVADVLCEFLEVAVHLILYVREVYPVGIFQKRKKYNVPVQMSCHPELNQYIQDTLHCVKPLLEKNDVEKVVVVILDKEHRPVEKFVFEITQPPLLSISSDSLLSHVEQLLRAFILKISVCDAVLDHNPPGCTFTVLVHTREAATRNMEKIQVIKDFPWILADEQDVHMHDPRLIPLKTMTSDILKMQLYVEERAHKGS
T2 sequence (Q9UI95 whole entry): as the sequence (Q9UI95 whole entry, the tested form may be a part) above
T2 sequence (Q9UBZ9 whole entry partner): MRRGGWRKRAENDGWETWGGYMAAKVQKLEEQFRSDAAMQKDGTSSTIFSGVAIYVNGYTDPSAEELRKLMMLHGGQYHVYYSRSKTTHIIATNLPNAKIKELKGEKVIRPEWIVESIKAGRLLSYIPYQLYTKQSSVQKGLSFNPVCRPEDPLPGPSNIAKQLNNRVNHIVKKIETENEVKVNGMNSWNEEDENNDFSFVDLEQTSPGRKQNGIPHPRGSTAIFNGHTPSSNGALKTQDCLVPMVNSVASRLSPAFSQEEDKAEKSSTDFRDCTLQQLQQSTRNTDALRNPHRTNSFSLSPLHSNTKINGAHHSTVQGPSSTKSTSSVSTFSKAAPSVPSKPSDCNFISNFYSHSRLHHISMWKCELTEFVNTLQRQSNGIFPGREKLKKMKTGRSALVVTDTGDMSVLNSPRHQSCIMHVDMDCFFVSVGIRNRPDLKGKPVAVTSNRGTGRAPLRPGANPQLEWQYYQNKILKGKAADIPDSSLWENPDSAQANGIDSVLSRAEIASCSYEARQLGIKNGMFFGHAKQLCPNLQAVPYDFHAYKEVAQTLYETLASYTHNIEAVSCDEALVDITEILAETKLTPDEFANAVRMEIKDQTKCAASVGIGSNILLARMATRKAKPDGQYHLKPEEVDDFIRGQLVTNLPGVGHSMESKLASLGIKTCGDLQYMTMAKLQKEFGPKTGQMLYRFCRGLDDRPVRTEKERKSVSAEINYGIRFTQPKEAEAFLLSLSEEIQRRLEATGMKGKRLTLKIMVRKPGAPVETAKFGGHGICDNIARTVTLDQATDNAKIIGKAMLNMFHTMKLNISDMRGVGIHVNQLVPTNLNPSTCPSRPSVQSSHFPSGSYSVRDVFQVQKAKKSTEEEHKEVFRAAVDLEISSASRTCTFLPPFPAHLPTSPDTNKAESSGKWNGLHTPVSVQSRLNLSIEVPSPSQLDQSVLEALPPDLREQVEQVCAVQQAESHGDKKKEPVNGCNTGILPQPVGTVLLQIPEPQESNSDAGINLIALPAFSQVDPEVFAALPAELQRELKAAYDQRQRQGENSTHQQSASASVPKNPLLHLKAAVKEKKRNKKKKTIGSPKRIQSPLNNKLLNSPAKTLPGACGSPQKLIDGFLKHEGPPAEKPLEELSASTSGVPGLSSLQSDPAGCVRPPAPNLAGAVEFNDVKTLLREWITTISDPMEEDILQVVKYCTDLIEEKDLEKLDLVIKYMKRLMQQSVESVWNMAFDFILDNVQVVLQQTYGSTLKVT

For ZINC25496030 [c#3], the Kd (as a rule, the concentration at which binding is half-saturated) in test [1] was 44.9 ± 2.06 µM. For the same substance, the “% reduction of MAD2L2-Rev1 binding at 50 μM” value in test [2] is reported as ~ 80%.
For ZINC97017995 [c#2], in test [3], the kD was determined as 310.8 ± 32.96 µM.

Source of the values: PMC8838411, “Disrupting the MAD2L2-Rev1 Complex Enhances Cell Death upon DNA Damage” (Molecules, 2022).
